Results: patent US20240082221A1, “COMPOSITIONS AND METHODS FOR THE IDENTIFICATION OF COMPOUNDS THAT PROTECT AGAINST LIPOFUSCIN CYTOTOXICITY” (priority 2021, published 2024)

What was measured:
[1] = system: EDN2, FGF2, GFAP, SERP, VEGF, CXCL15, XBP1s, SCAND1, CEBPA, HMGA; assay: Intravitreal treatment of DKO mice, qPCR of retinal degeneration markers in whole retina; format: in vivo, ABCA4−/− RDH8−/− double knock-out mice (DKO); conditions: total RNA from whole retina, vs control injected eyes
Experimental: Pharmacological treatment of mice. KIRA6 (Cayman Chemical, item no. 19151) was injected intravitreously with 1 μL total volume. KIRA6 concentration is 20 μg/ml. The control eye received an equal amount of mock reagent (DMSO). Mouse was weighed and anesthetized with Ketamine cocktail at 10 mg/kg, then mouse eyes were dilated with Tropicamide. The exact volume of Mock reagent or Kira6 was determined by 10 μl Hamilton syringe. Under surgery microscope, mouse eye was placed in the center of the field, 34 gauge of needle was inserted into mouse eye at the Ora serrata and towards ONH. Once the needle was inside the mouse eye, 2 μl of the contents in the Hamilton syringe was injected. The needle was slowly withdrawn to prevent the reflux of the solution. Nec7 (2 μL of 33 mM stock in DMSO) was intravitreally injected in the left eye and an equal amount of vehicle (DMSO) was administered to the right eye. After intravitreal injection, the mouse was placed in a warm place until it completely woke up. […]
RNA isolation and quantitative PCR. […] The total RNA then was reversed transcribed using High-Capacity cDNA Reverse Transcription Kit (ThermoFisher Scientific, cat.no. 4368814) and analyzed gene expression using SYBR Green Master Mix (ThermoFisher Scientific, cat.no. 4472908) in an Applied Biosystems StepOne real time PCR machine. […]

XBP1s [2] = assay: Intravitreal treatment of DKO mice, XBP1s immunostaining of RPE flat mounts; format: in vivo, ABCA4−/− RDH8−/− double knock-out mice (DKO); conditions: 26 month old DKO mice, intraocular, a week later, vs mock treated eyes
Experimental: Animals. Pigmented ABCA4^−/− RDH8^−/− double knock-out mice (DKO), free of rd8 mutation, were purchased from Jackson laboratories and every 10 generations were in house backcrossed to the C57BL6J control strain, to prevent genetic drifts. Genotyping was performed at Transnetyx (Memphis, TN). Only mice with ABCA4, RDH8, RPE65-Leu450 but no crb1 mutations (retinal degeneration slow) were maintained in the colony. Controls C57BL/6J (Rpe65-Leu450, crb1negative) were also Jackson's lab. All mice were housed at Weill Cornell Medicine's animal facility under a 12 h light (˜10 lux)/12 h dark cycle environment or under complete darkness. Experimental manipulations in the dark were done under dim red light transmitted through a Kodak No. 1 safelight filter (transmittance >560 nm). No retinal degeneration or necroptosis markers were appreciably detected in 20 months or older C57BL6/N (Rpe65-Met450, crb1 positive) obtained from the NAI/NIH. All animal procedures and experiments were approved by the Animal Care and Use Committee of Weill Cornell Medical College in agreement with the guidelines established by the NIH Office of Laboratory Animal Welfare and the Association of Research for Vision and Ophthalmology (ARVO) statement for the use of animals in ophthalmic research. […]
Pharmacological treatment of mice. […] The exact volume of Mock reagent or Kira6 was determined by 10 μl Hamilton syringe. […]

XBP1s [3] = assay: qPCR of XBP1 splicing in hfRPE; format: cell-based, Human
Source text: (§1) RNA isolation and quantitative PCR. Total RNA was extracted from cultured cells or mouse eye RPE layer using the RNeasy Mini kit (QIAGEN). The total RNA was digested with deoxyribonuclease I to prevent amplification of genomic DNA. The total RNA then was reversed transcribed using High-Capacity cDNA Reverse Transcription Kit (ThermoFisher Scientific, cat.no. 4368814) and analyzed gene expression using SYBR Green Master Mix (ThermoFisher Scientific, cat.no. 4472908) in an Applied Biosystems StepOne real time PCR machine. GAPDH was used as a reference gene. […] After genes were amplified by real time PCR, some of the PCR products were separated by 2.5% agarose gel.

ARPE19 cells = assay: ATR-induced light-independent cell death; format: cell-based, Human; conditions: pre-treatment with 33 μM
Source text: Overall, these indicate that necroptosis is a specific readout of ocular lipofuscin toxicity, easily distinguishable from the poisonous effects of ATR.

IRE1α = assay: qPCR of spliced XBP1 (XBP1s) as readout of IRE1α activity in ARPE-19; format: cell-based, Human; conditions: ARPE-19, qPCR
Source text: as §1

Structure (SMILES) | mRNA levels of markers for retinal degeneration, inflammation/angiogenesis, ER-stress and necroptosis [1] | XBP1s staining of whole RPE flat mounts (XBP1s [2]) | effect on LF-induced XBP1 splicing in hfRPE (XBP1s [3]) | effect on cell death by ATR (ARPE19 cells) | effect on LF-induced XBP1 splicing (XBP1s, IRE1α activity) (IRE1α)
CC(C)(C)c1nc(-c2ccc(NC(=O)Nc3cccc(C(F)(F)F)c3)c3ccccc23)c2c(N)nccn12 [KIRA6] | generalized reduction in all the tested markers | decreased from the center to the periphery |  |  | 
N=C1S/C(=C\c2cn[nH]c2-c2ccc(F)cc2)C(=O)N1c1nccs1 [Nec7, Necrostatin 7] |  |  | prevention | did not block cell death | completely abrogated
